Read-outs that look alike come from different tables or passages of the source.
Assays:
[1] = Single dose PK in patients with narcolepsy (Cohorts 5, 6 and 7), plasma; type: in vivo, human; details: for Tmax / AUC / clearance / concentration at 9 h / AUC(0-inf) / AUC(0-t) / Cmax / Vd / concentration at 1 h / concentration at 2 h / concentration at 4 h / concentration at 6 h: human, plasma; for AUC: read-out: AUC24
Method: This study investigates (i) the safety and tolerability of Compound A (methyl (2R,3S)-3-((methylsulfonyl)amino)-2-(((cis-4-phenylcyclohexyl)oxy)methyl)piperidine-1-carboxylate) when a single dose given as a 9 hour continuous IV infusion is administered to healthy adults, healthy elderly subjects and patients with narcolepsy type 1 (NT1); (ii) the pharmacokinetics of Compound A when a single dose given as a 9 hour continuous IV infusion is administered to healthy adults, healthy elderly subjects and patients with narcolepsy type 1; and (iii) the pharmacodynamics (PD) effects of Compound A, primarily by evaluation of the sleep latency on MWT when a single dose given as a 9 hour continuous IV infusion is administered to patients with narcolepsy type 1.
In Part 2, NT1 patients received a single dose of Compound A or placebo administered as a continuous IV infusion over a 9-hour period during the day. A 40-minute Maintenance of Wakefulness Test (MWT) was conducted 4 times during the continuous IV infusion to assess effects on wakefulness in soporific conditions at 2, 4, 6 and 8 hours from start of infusion. Three cohorts of patients were enrolled (n=14 total).
(§1) Pharmacokinetics: Concentrations of Compound A in plasma, and CSF, and pharmacokinetics parameters.
On average, the time to reach the plateau appeared to be approximately 4 hours after the start of infusion. […] After switching off the IV infusion, Compound A plasma concentrations declined rapidly and in a biphasic manner with a mean terminal disposition phase t1/2z ranging approximately from 3.5 to 4.1 hours across the doses.

[2] = CSF PK in healthy subjects (Cohort 4); type: in vivo; details: human; for concentration at 6 h: cerebrospinal fluid, intravenous, 112 mg, Cohort 4
Method: as §1
Following a single 9-hour IV infusion of 112 mg to healthy adult subjects in Cohort 4, Compound A plasma concentration-time profile was consistent with that observed in Cohort 1. At 6 hours after the start of infusion, mean ratio CSF/plasma concentration of Compound A was estimated to be about 2.8%.

[3] = intravenous, 11.2 mg, Cmpd A 11.2 mg, Median, Cohort 5, 6, 7
[4] = intravenous, 44.8 mg, Cmpd A 44.8 mg, Geo Mean, Cohort 5, 6, 7
[5] = intravenous, 44.8 mg, Cmpd A 44.8 mg, Mean, Cohort 5, 6, 7
[6] = intravenous, 44.8 mg, Cmpd A 44.8 mg, Median, Cohort 5, 6, 7
[7] = iv, 5 mg, NT1, single 9 h IV infusion, read-out: Plasma concentration, Mean
[8] = iv, 5 mg, NT1, single 9 h IV infusion, read-out: Plasma concentration, Median
[9] = iv, 11.2 mg, NT1, single 9 h IV infusion, read-out: Plasma concentration, Mean
[10] = iv, 11.2 mg, NT1, single 9 h IV infusion, read-out: Plasma concentration, Median
[11] = iv, 44.8 mg, NT1, single 9 h IV infusion, read-out: Plasma concentration, Mean
[12] = iv, 44.8 mg, NT1, single 9 h IV infusion, read-out: Plasma concentration, Median

Which results are given for COC(=O)N1CCC[C@H](NS(C)(=O)=O)[C@@H]1CO[C@H]1CC[C@@H](c2ccccc2)CC1 [Compound A, methyl (2R,3S)-3-((methylsulfonyl)amino)-2-(((cis-4-phenylcyclohexyl)oxy)methyl)piperidine-1-carboxylate]?
Tmax [1, 3]: 9 h; AUC [1, 3]: 200 ng·h/mL; clearance ([1]; intravenous, 11.2 mg, Cmpd A 11.2 mg, Median, Cohort 5, 6, 7, read-out: CL (converted)): 924 mL/min; concentration at 9 h ([1]; intravenous, 11.2 mg, Cmpd A 11.2 mg, Median, Cohort 5, 6, 7, read-out: Ceoi): 21.9 ng/mL; AUC(0-inf) [1, 4]: 925 ng·h/mL; AUC(0-t) [1, 4]: 911 ng·h/mL; Cmax [1, 4]: 96.5 ng/mL; AUC [1, 4]: 911 ng·h/mL; concentration at 9 h ([1]; intravenous, 44.8 mg, Cmpd A 44.8 mg, Geo Mean, Cohort 5, 6, 7, read-out: Ceoi): 94 ng/mL; AUC(0-inf) [1, 5]: 959 ng·h/mL; AUC(0-t) [1, 5]: 941 ng·h/mL; Cmax [1, 5]: 98.3 ng/mL; Tmax [1, 5]: 6.5 h; AUC [1, 5]: 941 ng·h/mL; clearance ([1]; intravenous, 44.8 mg, Cmpd A 44.8 mg, Mean, Cohort 5, 6, 7, read-out: CL (converted)): 836 mL/min; concentration at 9 h ([1]; intravenous, 44.8 mg, Cmpd A 44.8 mg, Mean, Cohort 5, 6, 7, read-out: Ceoi): 96.2 ng/mL; Vd ([1]; intravenous, 44.8 mg, Cmpd A 44.8 mg, Mean, Cohort 5, 6, 7, read-out: Vss): 117 L; Vd ([1]; intravenous, 44.8 mg, Cmpd A 44.8 mg, Mean, Cohort 5, 6, 7, read-out: Vz): 281 L; AUC(0-inf) [1, 6]: 930 ng·h/mL; AUC(0-t) [1, 6]: 919 ng·h/mL; Cmax [1, 6]: 97 ng/mL; Tmax [1, 6]: 6.5 h; AUC [1, 6]: 919 ng·h/mL; clearance ([1]; intravenous, 44.8 mg, Cmpd A 44.8 mg, Median, Cohort 5, 6, 7, read-out: CL (converted)): 809 mL/min; concentration at 9 h ([1]; intravenous, 44.8 mg, Cmpd A 44.8 mg, Median, Cohort 5, 6, 7, read-out: Ceoi): 95.2 ng/mL; Vd ([1]; intravenous, 44.8 mg, Cmpd A 44.8 mg, Median, Cohort 5, 6, 7, read-out: Vss): 116 L; Vd ([1]; intravenous, 44.8 mg, Cmpd A 44.8 mg, Median, Cohort 5, 6, 7, read-out: Vz): 282 L; concentration at 1 h [1, 7]: 6.38 ng/mL; concentration at 1 h [1, 8]: 6.25 ng/mL; concentration at 2 h [1, 7]: 8.75 ng/mL; concentration at 2 h [1, 8]: 9.15 ng/mL; concentration at 4 h [1, 7]: 10.1 ng/mL; concentration at 4 h [1, 8]: 9.62 ng/mL; concentration at 6 h [1, 7]: 7.91 ng/mL; concentration at 6 h [1, 8]: 7.97 ng/mL; concentration at 9 h ([1]; iv, 5 mg, 9 hr, NT1, single 9 h IV infusion, read-out: Plasma concentration, Mean): 9.64 ng/mL; concentration at 9 h ([1]; iv, 5 mg, 9 hr, NT1, single 9 h IV infusion, read-out: Plasma concentration, Median): 9.96 ng/mL; concentration at 1 h [1, 9]: 14.4 ng/mL; concentration at 1 h [1, 10]: 14.3 ng/mL; concentration at 2 h [1, 9]: 17.3 ng/mL; concentration at 2 h [1, 10]: 17.1 ng/mL; concentration at 4 h [1, 9]: 21.5 ng/mL; concentration at 4 h [1, 10]: 21.5 ng/mL; concentration at 6 h [1, 9]: 19.5 ng/mL; concentration at 6 h [1, 10]: 19.8 ng/mL; concentration at 9 h ([1]; iv, 11.2 mg, 9 hr, NT1, single 9 h IV infusion, read-out: Plasma concentration, Mean): 21.2 ng/mL; concentration at 9 h ([1]; iv, 11.2 mg, 9 hr, NT1, single 9 h IV infusion, read-out: Plasma concentration, Median): 21.9 ng/mL; concentration at 1 h [1, 11]: 61.5 ng/mL; concentration at 1 h [1, 12]: 56.5 ng/mL; concentration at 2 h [1, 11]: 74.1 ng/mL; concentration at 2 h [1, 12]: 76.3 ng/mL; concentration at 4 h [1, 11]: 96 ng/mL; concentration at 4 h [1, 12]: 92.9 ng/mL; concentration at 6 h [1, 11]: 90 ng/mL; concentration at 6 h [1, 12]: 88.3 ng/mL; concentration at 9 h ([1]; iv, 44.8 mg, 9 hr, NT1, single 9 h IV infusion, read-out: Plasma concentration, Mean): 96.2 ng/mL; concentration at 9 h ([1]; iv, 44.8 mg, 9 hr, NT1, single 9 h IV infusion, read-out: Plasma concentration, Median): 95.2 ng/mL; clearance ([1]; iv, IV administration, NT1 patients, read-out: mean estimates of plasma clearance): 833 to 950 mL/min; time to reach the plateau of plasma concentration after the start of infusion ([1]; single 9 h IV infusion, 5 to 44.8 mg, NT1 patients): approximately 4 hours; Kp at 6 h ([2]; CSF, 112 mg single 9-hour IV infusion, 6 hours after the start of infusion, healthy adults Cohort 4, read-out: mean ratio CSF/plasma concentration): ~0.028; concentration at 6 h ([2]; Mean): 6.73 ng/mL; concentration at 6 h ([2]; Median): 6.63 ng/mL

From patent US20220339143A1, “TAK-925 FOR USE IN TREATING NARCOLEPSY” (Takeda Pharmaceutical Company Limited, priority 2019, published 2022)
